#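 Results reflect a 48-hour exposure of cells in 96-well plates to compound at five concentrations. At the TGI there is no net growth.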
# System: SF-539 CNS
# Assay: growth of human tumour cells (NCI), 48 h
row,Compound,TGI [µM]
1,Cc1c(N=Nc2ccccc2)c(-c2ccccc2)n(C2OC(CO)C(O)C(O)C2O)c(=S)c1C#N (stereo not drawn),20.6

# System: NCI-H23 lung
# Assay: growth of human tumour cells (NCI), 48 h
row,Compound,TGI [µM]
1,CC(=O)Nc1ccc(-c2nc3ccccc3s2)cc1Br,> 97.3
2,CC(NC(=O)OCc1ccccc1)NC(=O)OC(C)(C)C (stereo not drawn),> 100
3,COc1nn(Cc2ccccn2)c2ccc([N+](=O)[O-])cc12,> 100
4,O=C(Nc1ccc(Cl)cc1)c1cc(S(=O)(=O)Nc2n[nH]c(Nc3ccc4ccccc4c3)n2)c(SSc2cc(Cl)c(C(=O)Nc3ccc(Cl)cc3)cc2S(=O)(=O)Nc2n[nH]c(Nc3ccc4ccccc4c3)n2)cc1Cl,66.5
5,CC1=NN(c2ccccc2)C2(C1)C(Cl)C(=O)N2c1nc2ccccc2s1 (stereo not drawn),77.6
6,Cc1c(N=Nc2ccccc2)c(-c2ccccc2)n(C2OC(CO)C(O)C(O)C2O)c(=S)c1C#N (stereo not drawn),16.2

# System: CAKI-1 renal
# Assay: growth of human tumour cells (NCI), 48 h
row,Compound,TGI [µM]
1,CC(=O)Nc1ccc(-c2nc3ccccc3s2)cc1Br,> 88.1
2,CC(NC(=O)OCc1ccccc1)NC(=O)OC(C)(C)C (stereo not drawn),> 100
3,COc1nn(Cc2ccccn2)c2ccc([N+](=O)[O-])cc12,> 100
4,O=C(Nc1ccc(Cl)cc1)c1cc(S(=O)(=O)Nc2n[nH]c(Nc3ccc4ccccc4c3)n2)c(SSc2cc(Cl)c(C(=O)Nc3ccc(Cl)cc3)cc2S(=O)(=O)Nc2n[nH]c(Nc3ccc4ccccc4c3)n2)cc1Cl,38
5,CC1=NN(c2ccccc2)C2(C1)C(Cl)C(=O)N2c1nc2ccccc2s1 (stereo not drawn),> 100

# System: NCI-H226 lung
# Assay: growth of human tumour cells (NCI), 48 h
row,Compound,TGI [µM]
1,CC(=O)Nc1ccc(-c2nc3ccccc3s2)cc1Br,> 94.7
2,CC(NC(=O)OCc1ccccc1)NC(=O)OC(C)(C)C (stereo not drawn),> 100
3,COc1nn(Cc2ccccn2)c2ccc([N+](=O)[O-])cc12,> 100
4,O=C(Nc1ccc(Cl)cc1)c1cc(S(=O)(=O)Nc2n[nH]c(Nc3ccc4ccccc4c3)n2)c(SSc2cc(Cl)c(C(=O)Nc3ccc(Cl)cc3)cc2S(=O)(=O)Nc2n[nH]c(Nc3ccc4ccccc4c3)n2)cc1Cl,54.4
5,CC1=NN(c2ccccc2)C2(C1)C(Cl)C(=O)N2c1nc2ccccc2s1 (stereo not drawn),85.7
6,Cc1c(N=Nc2ccccc2)c(-c2ccccc2)n(C2OC(CO)C(O)C(O)C2O)c(=S)c1C#N (stereo not drawn),28.5

# System: SK-OV-3 ovarian
# Assay: growth of human tumour cells (NCI), 48 h
row,Compound,TGI [µM]
1,CC(=O)Nc1ccc(-c2nc3ccccc3s2)cc1Br,75
2,CC(NC(=O)OCc1ccccc1)NC(=O)OC(C)(C)C (stereo not drawn),> 100
3,COc1nn(Cc2ccccn2)c2ccc([N+](=O)[O-])cc12,> 100
4,O=C(Nc1ccc(Cl)cc1)c1cc(S(=O)(=O)Nc2n[nH]c(Nc3ccc4ccccc4c3)n2)c(SSc2cc(Cl)c(C(=O)Nc3ccc(Cl)cc3)cc2S(=O)(=O)Nc2n[nH]c(Nc3ccc4ccccc4c3)n2)cc1Cl,66.5
5,CC1=NN(c2ccccc2)C2(C1)C(Cl)C(=O)N2c1nc2ccccc2s1 (stereo not drawn),> 100
6,Cc1c(N=Nc2ccccc2)c(-c2ccccc2)n(C2OC(CO)C(O)C(O)C2O)c(=S)c1C#N (stereo not drawn),23

# System: SR leukemia
# Assay: growth of human tumour cells (NCI), 48 h
row,Compound,TGI [µM]
1,CC(=O)Nc1ccc(-c2nc3ccccc3s2)cc1Br,> 100
2,CC(NC(=O)OCc1ccccc1)NC(=O)OC(C)(C)C (stereo not drawn),> 100
3,COc1nn(Cc2ccccn2)c2ccc([N+](=O)[O-])cc12,98.4
4,O=C(Nc1ccc(Cl)cc1)c1cc(S(=O)(=O)Nc2n[nH]c(Nc3ccc4ccccc4c3)n2)c(SSc2cc(Cl)c(C(=O)Nc3ccc(Cl)cc3)cc2S(=O)(=O)Nc2n[nH]c(Nc3ccc4ccccc4c3)n2)cc1Cl,> 68
5,CC1=NN(c2ccccc2)C2(C1)C(Cl)C(=O)N2c1nc2ccccc2s1 (stereo not drawn),80
6,Cc1c(N=Nc2ccccc2)c(-c2ccccc2)n(C2OC(CO)C(O)C(O)C2O)c(=S)c1C#N (stereo not drawn),> 100

# System: U251 CNS
# Assay: growth of human tumour cells (NCI), 48 h
row,Compound,TGI [µM]
1,CC(=O)Nc1ccc(-c2nc3ccccc3s2)cc1Br,> 100
2,CC(NC(=O)OCc1ccccc1)NC(=O)OC(C)(C)C (stereo not drawn),> 100
3,COc1nn(Cc2ccccn2)c2ccc([N+](=O)[O-])cc12,> 100
4,O=C(Nc1ccc(Cl)cc1)c1cc(S(=O)(=O)Nc2n[nH]c(Nc3ccc4ccccc4c3)n2)c(SSc2cc(Cl)c(C(=O)Nc3ccc(Cl)cc3)cc2S(=O)(=O)Nc2n[nH]c(Nc3ccc4ccccc4c3)n2)cc1Cl,58.6
5,CC1=NN(c2ccccc2)C2(C1)C(Cl)C(=O)N2c1nc2ccccc2s1 (stereo not drawn),> 100
6,Cc1c(N=Nc2ccccc2)c(-c2ccccc2)n(C2OC(CO)C(O)C(O)C2O)c(=S)c1C#N (stereo not drawn),17.7

# System: MDA-MB-231 breast
# Assay: growth of human tumour cells (NCI), 48 h
row,Compound,TGI [µM]
1,CC(=O)Nc1ccc(-c2nc3ccccc3s2)cc1Br,> 89
2,CC(NC(=O)OCc1ccccc1)NC(=O)OC(C)(C)C (stereo not drawn),> 100
3,COc1nn(Cc2ccccn2)c2ccc([N+](=O)[O-])cc12,> 100
4,O=C(Nc1ccc(Cl)cc1)c1cc(S(=O)(=O)Nc2n[nH]c(Nc3ccc4ccccc4c3)n2)c(SSc2cc(Cl)c(C(=O)Nc3ccc(Cl)cc3)cc2S(=O)(=O)Nc2n[nH]c(Nc3ccc4ccccc4c3)n2)cc1Cl,46.5
5,CC1=NN(c2ccccc2)C2(C1)C(Cl)C(=O)N2c1nc2ccccc2s1 (stereo not drawn),89.2
6,Cc1c(N=Nc2ccccc2)c(-c2ccccc2)n(C2OC(CO)C(O)C(O)C2O)c(=S)c1C#N (stereo not drawn),44.4

# System: SK-MEL-28 melanoma
# Assay: growth of human tumour cells (NCI), 48 h
row,Compound,TGI [µM]
1,CC(=O)Nc1ccc(-c2nc3ccccc3s2)cc1Br,> 100

# — PubChem BioAssay (NCI)
